According to ChEMBL document CHEMBL5532660, “Lead Optimization of BIBR1591 To Improve Its Telomerase Inhibitory Activity: Design and Synthesis of Novel Four Chemical Series with In Silico, In Vitro, and In Vivo Preclinical Assessments” (J Med Chem, 2024):
pIC50: −log10 of the molar value. Values belong to the molecule of their own block, whether it stands above or below them.

Legend:
[1] = molecular target: Telomerase reverse transcriptase (Homo sapiens) (UniProt O14746); experiment: Inhibition of telomerase (unknown origin) by RT-qPCR analysis relative to control; design: concentration or dose not given beside the values; conditions: concentration not given here
NCI-H460 = experiment: Cytotoxicity against human NCI-H460 cells overexpressing telomerase assessed as inhibition of cell growth incubated for 48 hrs by SRB assay; type: functional, cell-based; conditions: NCI-H460, 48 h
Huh-7 [2] = experiment: Cytotoxicity against human Huh-7 cells overexpressing telomerase assessed as inhibition of cell growth incubated for 48 hrs by SRB assay; type: functional, cell-based; conditions: Huh-7, 48 h
Huh-7 [3] = experiment: Induction of apoptosis in human Huh-7 cells assessed as upregulation of BAX protein expression by measuring fold change by ELISA relative to control; type: functional
HepG2 = experiment: Cytotoxicity against human HepG2 cells overexpressing telomerase assessed as inhibition of cell growth incubated for 48 hrs by SRB assay; type: functional, cell-based; conditions: HepG2, 48 h
[4] = Cytotoxicity against HSF cells assessed as reduction in cell viability upto 50 ug/ml incubated for 48 hrs by SRB assay; type: toxicity, cell-based; conditions: human, dose < 50 µg/ml
Huh-7 [5] = experiment: Induction of apoptosis in human Huh-7 cells assessed as upregulation of p53 protein expression by measuring fold change by ELISA relative to control; type: functional
NCI-H1299 = experiment: Cytotoxicity against human NCI-H1299 cells overexpressing telomerase assessed as inhibition of cell growth incubated for 48 hrs by SRB assay; type: functional, cell-based; conditions: NCI-H1299, 48 h
Huh-7 [6] = experiment: Induction of apoptosis in human Huh-7 cells assessed as downregulation of BCL-2 protein expression by measuring fold change by ELISA relative to control; type: functional
A549 = experiment: Cytotoxicity against human A549 cells overexpressing telomerase assessed as inhibition of cell growth incubated for 48 hrs by SRB assay; type: functional, cell-based; conditions: A549, 48 h
Ehrlich [7] = experiment: Antitumor activity against mouse EAC cells implanted in Swiss albino mouse assessed as inflammatory cell infiltration at 5 mg/kg, ip administered for 2 weeks by H and E staining based light microscopic analysis (reference value: 0 to 25%); type: functional
Ehrlich [8] = experiment: Antitumor activity against mouse EAC cells implanted in Swiss albino mouse assessed as intact anaplastic tumor cells at 5 mg/kg, ip administered for 2 weeks by H and E staining based light microscopic analysis (reference value: 75 to 100%); type: functional
Ehrlich [9] = experiment: Antitumor activity against mouse EAC cells implanted in Swiss albino mouse assessed as platelet count at 5 mg/kg, ip administered for 2 weeks (reference value: 963.66 +/- 29.63 x10^3/mm3); type: functional
Ehrlich [10] = experiment: Antitumor activity against mouse EAC cells implanted in Swiss albino mouse assessed as necrosis at 5 mg/kg, ip administered for 2 weeks by H and E staining based light microscopic analysis (reference value: 0 to 25%); type: functional
Ehrlich [11] = experiment: Antitumor activity against mouse EAC cells implanted in Swiss albino mouse assessed as erythrocyte count at 5 mg/kg, ip administered for 2 weeks (reference value: 4.1 +/- 0.23 x 10^6/mm3); type: functional
Ehrlich [12] = experiment: Antitumor activity against mouse EAC cells implanted in Swiss albino mouse assessed as reduction in total leukocytes count at 5 mg/kg, ip administered for 2 weeks relative to control; type: functional; design: scale not given: the % may be the effect or the level left
Ehrlich [13] = experiment: Antitumor activity against mouse EAC cells implanted in Swiss albino mouse assessed as total leukocyte count at 5 mg/kg, ip administered for 2 weeks (reference value: 7.11 +/- 0.27 x10^3/mm3); type: functional
Ehrlich [14] = experiment: Antitumor activity against mouse EAC cells implanted in Swiss albino mouse assessed as apoptotic cells at 5 mg/kg, ip administered for 2 weeks by H and E staining based light microscopic analysis (reference value: 25 to 50%); type: functional
Ehrlich [15] = experiment: Antitumor activity against mouse EAC cells implanted in Swiss albino mouse assessed as increase in serum SOD level at 5 mg/kg, ip administered for 2 weeks by ELISA relative to control; type: functional
Ehrlich [16] = experiment: Antitumor activity against mouse EAC cells implanted in Swiss albino mouse assessed as hemoglobin level at 5 mg/kg, ip administered for 2 weeks (reference value: 9.25 +/- 0.26 g/dL); type: functional
Ehrlich [17] = experiment: Antitumor activity against mouse EAC cells implanted in Swiss albino mouse assessed as increase in erythrocyte count at 5 mg/kg, ip administered for 2 weeks relative to control; type: functional
Ehrlich [18] = experiment: Antitumor activity against mouse EAC cells implanted in Swiss albino mouse assessed as reduction in TNF-alpha level at 5 mg/kg, ip administered for 2 weeks by ELISA relative to control; type: functional; design: scale not given: the % may be the effect or the level left
Ehrlich [19] = experiment: Antitumor activity against mouse EAC cells implanted in Swiss albino mouse assessed as reduction in total platelet count at 5 mg/kg, ip administered for 2 weeks relative to control; type: functional; design: scale not given: the % may be the effect or the level left
Ehrlich [20] = experiment: Antitumor activity against mouse EAC cells implanted in Swiss albino mouse assessed as reduction in tumor weight at 5 mg/kg, ip administered for 2 weeks and measured on day 5, 10 and 14 relative to control; type: functional; design: scale not given: the % may be the effect or the level left
Ehrlich [21] = experiment: Antitumor activity against mouse EAC cells implanted in Swiss albino mouse assessed as appearance of granulation tissue at 5 mg/kg, ip administered for 2 weeks by H and E staining based light microscopic analysis (reference value: 0 to 25%); type: functional
Ehrlich [22] = experiment: Antitumor activity against mouse EAC cells implanted in Swiss albino mouse assessed as increase in hemoglobin level at 5 mg/kg, ip administered for 2 weeks relative to control; type: functional
Ehrlich [23] = experiment: Antitumor activity against mouse EAC cells implanted in Swiss albino mouse assessed as reduction in tumor volume at 5 mg/kg, ip administered for 2 weeks and measured on day 5, 10 and 14 relative to control; type: functional; design: scale not given: the % may be the effect or the level left
Ehrlich [24] = experiment: Antitumor activity against mouse EAC cells implanted in Swiss albino mouse assessed as increase in caspase-3 level in serum at 5 mg/kg, ip administered for 2 weeks by ELISA relative to control; type: functional
Ehrlich [25] = experiment: Antitumor activity against mouse EAC cells implanted in Swiss albino mouse assessed as mean corpuscular volume at 5 mg/kg, ip administered for 2 weeks (reference value: 46.78 +/- 0.43 fL); type: functional
Ehrlich [26] = experiment: Antitumor activity against mouse EAC cells implanted in Swiss albino mouse assessed as mean corpuscular hemoglobin at 5 mg/kg, ip administered for 2 weeks (reference value: […] +/- 0.48 pg); type: functional

Chain of Telomerase reverse transcriptase (Homo sapiens) (O14746 whole entry): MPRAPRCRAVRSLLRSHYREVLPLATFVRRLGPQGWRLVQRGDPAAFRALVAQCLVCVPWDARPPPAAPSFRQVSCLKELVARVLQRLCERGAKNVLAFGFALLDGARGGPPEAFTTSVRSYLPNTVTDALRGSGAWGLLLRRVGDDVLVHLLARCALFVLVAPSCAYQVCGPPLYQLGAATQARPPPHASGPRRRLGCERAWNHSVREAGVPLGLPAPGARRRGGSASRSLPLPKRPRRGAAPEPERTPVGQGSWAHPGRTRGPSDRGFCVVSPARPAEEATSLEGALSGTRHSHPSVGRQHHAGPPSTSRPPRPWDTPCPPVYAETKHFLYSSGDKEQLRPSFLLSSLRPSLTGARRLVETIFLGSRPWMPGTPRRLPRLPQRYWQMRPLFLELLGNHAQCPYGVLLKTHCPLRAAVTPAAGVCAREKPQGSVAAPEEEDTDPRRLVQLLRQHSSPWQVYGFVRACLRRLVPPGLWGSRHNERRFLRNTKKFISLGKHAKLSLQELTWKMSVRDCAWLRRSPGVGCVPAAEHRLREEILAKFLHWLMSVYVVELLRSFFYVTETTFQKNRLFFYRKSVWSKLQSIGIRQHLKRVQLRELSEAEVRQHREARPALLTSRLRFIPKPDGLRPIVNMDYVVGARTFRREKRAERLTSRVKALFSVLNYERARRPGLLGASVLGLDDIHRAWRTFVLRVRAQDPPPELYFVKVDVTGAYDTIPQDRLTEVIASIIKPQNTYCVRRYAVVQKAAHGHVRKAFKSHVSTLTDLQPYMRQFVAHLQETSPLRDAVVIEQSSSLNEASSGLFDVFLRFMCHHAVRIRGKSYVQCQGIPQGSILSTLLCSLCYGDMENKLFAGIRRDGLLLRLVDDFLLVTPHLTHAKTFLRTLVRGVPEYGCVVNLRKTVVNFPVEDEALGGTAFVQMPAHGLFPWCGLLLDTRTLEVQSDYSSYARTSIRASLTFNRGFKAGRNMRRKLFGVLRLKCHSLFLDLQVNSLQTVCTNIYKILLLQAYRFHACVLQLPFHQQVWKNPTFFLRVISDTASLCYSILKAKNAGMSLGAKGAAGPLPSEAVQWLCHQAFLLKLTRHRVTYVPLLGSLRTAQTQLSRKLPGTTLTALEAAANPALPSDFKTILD

Compound: N#Cc1c(O)nc(SCC(=O)Nc2cccc([N+](=O)[O-])c2)nc1-c1cccnc1
inhibition [1]: 28.1%

Compound: C/C(=C\C(=O)Nc1ccccc1C(=O)O)c1ccc2ccccc2c1
inhibition [1]: 69.6%

Compound: COc1cccc2c1C(=O)c1c(O)c3c(c(O)c1C2=O)C[C@@](O)(C(=O)CO)C[C@@H]3O[C@H]1C[C@H](N)[C@H](O)[C@H](C)O1 [DOXORUBICIN]
Activity (Ehrlich [7]): 0%
Activity (Ehrlich [8]): 25%
Activity (Ehrlich [9]): 530.5 10^3/mm3
Activity (Ehrlich [10]): 50%
Activity (Ehrlich [11]): 5.93 10^6/mm3
Activity (Ehrlich [12]): 37.27%
Activity (Ehrlich [13]): 4.46 10^3/mm3
Activity (Ehrlich [14]): 50%
Activity (Ehrlich [15]): 129.54%
Activity (Ehrlich [16]): 11.28 g/dL
Activity (Ehrlich [17]): 44.63%
Activity (Ehrlich [18]): 64.14%
Activity (Ehrlich [19]): 44.94%
Activity (Ehrlich [20]): 62.52%
Activity (Ehrlich [21]): 0%
Activity (Ehrlich [22]): 21.94%
Activity (Ehrlich [23]): 57.05%
Activity (Ehrlich [24]): 64.95%
Activity (Ehrlich [25]): 51.14 fL
Activity (Ehrlich [26]): 16.43 pg

Compound: C/C(=C\C(=O)Nc1ccc(N2CCOCC2)cc1C(=O)O)c1ccc2ccccc2c1
inhibition [1]: 51.6%

Compound: N#Cc1c(O)nc(SCC(=O)Nc2cccc3ccccc23)nc1-c1cccnc1
inhibition [1]: 34.5%

Compound: CC(=O)c1ccc(NC(=O)CSc2nc(O)c(C#N)c(-c3cccnc3)n2)cc1
inhibition [1]: 30.2%

Compound: N#Cc1c(O)nc(SCC(=O)Nc2nc3ccccc3[nH]2)nc1-c1cccnc1
inhibition [1]: 32.6%

Compound: N#Cc1c(O)nc(SCC(=O)Nc2ccc3ccccc3c2)nc1-c1cccnc1
inhibition [1]: 26%

Compound: N#Cc1c(O)nc(SCC(=O)Nc2ccc(Cl)c(C(F)(F)F)c2)nc1-c1cccnc1
inhibition [1]: 8.91%

Compound: COc1ccc(NC(=O)CSc2nc(O)c(C#N)c(-c3cccnc3)n2)cc1
inhibition [1]: 46.1%

Further lines, with some results ahead:

inhibition [1]: 58.6%
Compound: N#Cc1c(O)nc(SCC(=O)Nc2sc3c(c2C#N)CCC3)nc1-c1cccnc1
pIC50 (NCI-H460): 4.35
pIC50 (Huh-7 [2]): 4.60
fold change (FC) (Huh-7 [3]): 1.08
pIC50 (HepG2): 4.39
Activity [4]: Non-Toxic
fold change (FC) (Huh-7 [5]): 1.07
pIC50 (NCI-H1299): 4.54
fold change (FC) (Huh-7 [6]): 0.8
pIC50 (A549): 4.05

inhibition [1]: 5.58%
Compound: N#Cc1c(O)nc(SCC(=O)Nc2cc(Cl)ccc2Cl)nc1-c1cccnc1

inhibition [1]: 21.7%
Compound: N#Cc1ccc(NC(=O)CSc2nc(O)c(C#N)c(-c3cccnc3)n2)cc1

inhibition [1]: 32.1%
Compound: N#Cc1c(O)nc(SCC(=O)Nc2nc3ccccc3s2)nc1-c1cccnc1

inhibition [1]: 55.6%
Compound: N#Cc1c(O)nc(SCC(=O)Nc2sc3c(c2C#N)CCCC3)nc1-c1cccnc1
pIC50 (NCI-H460): 4.39
pIC50 (Huh-7 [2]): 4.48
fold change (FC) (Huh-7 [3]): 1.14
pIC50 (HepG2): 4.74
Activity [4]: Non-Toxic
fold change (FC) (Huh-7 [5]): 1.13
pIC50 (NCI-H1299): 4.64
fold change (FC) (Huh-7 [6]): 0.77
pIC50 (A549): 4.07
